The subject of the assay is C. albicans SC5314 Flu^R. Kind of assay: Ex vivo model of fungal keratitis (porcine cornea). Set-up: species or system Candida albicans.

“Also recorded” adds a separate entry of the source. *1 amine or outer side, *2 acyl side, *3 side chain or, on linkers, in order; H or OH if unused. Where a SMILES comes first, the peptide text is derived from it. [ ]: non-standard residue; d: D form. X2 = CC[C@H](C)C[C@H](C)C[C@H](C)C[C@H](N[*:1])C(=O)[*:2]; X1 = CC[C@@H](C)[C@@H](O[*:1])C(=O)[*:2]; NMeVal(β-OH) = CN[C@H](C(=O)O)C(C)(C)O; aIle = CC[C@@H](C)[C@H](N)C(=O)O; NMeV = CN[C@H](C(=O)O)C(C)C; Sar = CNCC(=O)O

Take `CC[C@H](C)C[C@H](C)C[C@H](C)C[C@@H]1NC(=O)[C@H](C(C)C)N(C)C(=O)[C@@H]([C@H](C)CC)OC(=O)[C@H](C(C)(C)O)N(C)C(=O)[C@H](CC(C)C)NC(=O)[C@H](C(C)C)N(C)C(=O)[C@H]([C@H](C)CC)NC(=O)[C@@H]2CCCN2C(=O)CN(C)C1=O` [Compound 1, persephacin] (cyclo(L[NMeVal(β-OH)][X1][NMeV][X2][Sar]P[aIle][NMeV])): the “antifungal activity (fungal growth/infection), in words” value was “inhibited the growth; also recorded: eliminated the fungus”.

With `OC(Cn1cncn1)(Cn1cncn1)c1ccc(F)cc1F` [Fluconazole, fluconazole], the “antifungal activity (fungal growth/infection), in words” value is reported as “did not inhibit the growth; also recorded: unable to inhibit the fungus”.

For the compound `C[C@@H]1C/C=C/C=C/C=C/C=C/[C@H](O[C@@H]2O[C@H](C)[C@@H](O)[C@H](N)[C@@H]2O)C[C@@H]2O[C@](O)(C[C@@H](O)C[C@H]3O[C@@H]3/C=C/C(=O)O1)C[C@H](O)[C@H]2C(=O)O` [Natamycin, natamycin], the “antifungal activity (fungal growth/infection), in words” value was “inhibited the growth; also recorded: reduced the fungal burden”.

The record behind these values is US11643438B2, “Antimicrobial peptides and methods of use” (priority 2018, dated 2023).
